Results as given in patent US11542545B2, “Microfluidic measurements of the response of an organism to a drug” (priority 2014, dated 2023).
Read-outs that look alike come from different tables or passages of the source.

How the values were obtained:
[1] = tested on: resistant E. coli isolate; test: 23S rDNA copy number by digital PCR on a SlipChip after ciprofloxacin exposure, resistant isolate; format: cell-based; conditions: Example 4 resistant isolate, 2.5 ug/mL ciprofloxacin
[2] = tested on: ciprofloxacin-susceptible E. coli isolate from a patient with a urinary tract infection; conditions: 0.75 ug/mL ciprofloxacin, 30 minutes, 1:1 BHI:urine, qPCR, 3 replicates
[3] = tested on: ciprofloxacin-susceptible E. coli isolate from a patient with a urinary tract infection; conditions: 0.75 ug/mL ciprofloxacin, 30 minutes, sample diluted 1:10, digital PCR, Poisson statistics
[4] = tested on: susceptible UTI E. coli isolate; conditions: 2.5 ug/mL ciprofloxacin, 15 minutes, BHI
resistant UTI E. coli = conditions: 2.5 ug/mL ciprofloxacin, 15 minutes, BHI
E. coli isolates = conditions: RNA target; cited from earlier work
[5] = tested on: E. coli isolates from patients with urinary tract infections and susceptible to various antibiotics; conditions: 1:1 BHI:urine, qPCR
E. coli = conditions: after treatment with trimethoprim, susceptible cells, vs baseline level of zero (Slager 2014); cited from earlier work

O=C(O)c1cn(C2CC2)c2cc(N3CCNCC3)c(F)cc2c1=O [ciprofloxacin]
change in rDNA copy number [1]: No significant change | Cq of rDNA, treated sample [2]: 22.84+/−0.53 | 23S rDNA concentration, treated sample [3]: 148,031+/−7,103 copies/mL | 23S CT Treated [4]: 20.19/20.84 | FeoB CT Treated [4]: 23.3/23.71 | dnaAinh CT Treated [4]: 23.93/23.97 | recA CT Treated [4]: 24.81/24.65 | 23S CT Treated (resistant UTI E. coli): 20.22/20.13 | FeoB CT Treated (resistant UTI E. coli): 23.19/23.1 | dnaAinh CT Treated (resistant UTI E. coli): 23.68/23.89 | recA CT Treated (resistant UTI E. coli): 27.19/27.05 | Response to Ciprofloxacin: EcHS_A0999 dmsA anaerobic dimethyl sulfoxide reductase, A subunit (E. coli isolates): Same or Downregulated | Response to Ciprofloxacin: EcHS_A1247 pepT peptidase T (E. coli isolates): Same or Downregulated | Response to Ciprofloxacin: EcHS_A1333 narK nitrite extrusion protein 1 (E. coli isolates): Same or Downregulated | Response to Ciprofloxacin: EcHS_A1334 narG nitrate reductase, alpha subunit (E. coli isolates): Same or Downregulated | Response to Ciprofloxacin: EcHS_A1335 narH nitrate reductase, beta subunit (E. coli isolates): Same or Downregulated | Response to Ciprofloxacin: EcHS_A1557 fdnG formate dehydrogenase, nitrate inducible, alpha subunit, selenocysteine-containing (E. coli isolates): Same or Downregulated | Response to Ciprofloxacin: EcHS_A1755 hypothetical protein (E. coli isolates): Same or Downregulated | Response to Ciprofloxacin: EcHS_A1940 DNA damage-inducible protein YebG (E. coli isolates): Significantly Upregulated | Response to Ciprofloxacin: EcHS_A1987 flhC transcriptional activator FlhC (E. coli isolates): Same or Downregulated | Response to Ciprofloxacin: EcHS_A1988 flhD transcriptional activator FlhD (E. coli isolates): Same or Downregulated | Response to Ciprofloxacin: EcHS_A2346 napF ferredoxin-type protein (E. coli isolates): Same or Downregulated | Response to Ciprofloxacin: EcHS_A2835 recA recombinase A (E. coli isolates): Significantly Upregulated | Response to Ciprofloxacin: EcHS_A4283 lexA LexA repressor (E. coli isolates): Significantly Upregulated | Response to Ciprofloxacin: EcHS_A4284 dinF DNA-damage-inducible SOS response protein (E. coli isolates): Significantly Upregulated | Response to Ciprofloxacin: EcHS_A4300 uvrA excinuclease ABC subunit A (E. coli isolates): Significantly Upregulated

O=C1CN(/N=C/c2ccc([N+](=O)[O-])o2)C(=O)N1 [nitrofurantoin]
fold change in rDNA copy number ([5]; nitrofurantoin treatment, 15 minutes): 1.62 fold

CN(C)[C@@H]1C(O)=C(C(N)=O)C(=O)[C@@]2(O)C(O)=C3C(=O)c4c(O)cccc4[C@@](C)(O)[C@H]3C[C@@H]12 [tetracycline]
fold change in rDNA copy number ([5]; tetracycline treatment, 30 minutes): 1.55 fold

COc1cc(Cc2cnc(N)nc2N)cc(OC)c1OC [trimethoprim]
relative DNA copy number as compared to the distance from the origin of replication (oriC) (E. coli): peaks close to the origin of replication

trimethoprim/sulfamethoxazole
fold change in rDNA copy number ([5]; trimethoprim/sulfamethoxazole treatment, 45 minutes): 1.35 fold
